Test results from publication PMC7919472, “Insulin–Mimetic Dihydroxanthyletin-Type Coumarins from Angelica decursiva with Protein Tyrosine Phosphatase 1B and α-Glucosidase Inhibitory Activities and Docking Studies of Their Molecular Mechanisms” (Antioxidants, 2021).

Key:
[1] = Inhibition of ONOO−-mediated albumin (protein tyrosine) nitration, Western blot; assay type: biochemical
Method: ONOO^−-mediated protein tyrosine nitration was evaluated with minor modifications by using in our previously reported method.

[2] = molecular target: yeast α-glucosidase (Saccharomyces cerevisiae, UniProt P53341); test: α-Glucosidase inhibitory assay with pNPG substrate, with Dixon and Lineweaver-Burk kinetics; assay type: biochemical; settings: determined by Dixon and Lineweaver-Burk plots
Method: The enzyme inhibition analysis was carried out using the technique previously reported in our paper. The absorbance was recorded at 405 nm immediately afterward using the microplate spectrophotometer (Molecular Devices, Sunnyvale, CA, USA).
(§1) Two kinetic methods using Lineweaver-Burk and Dixon plots have been complemented for the determination of the kinetic process. PTP1B inhibition mode was calculated at different pNPP substrate concentration (0.5, 1.0, and 2.0 mM) in the absence or presence of different coumarins test concentrations (0, 0.8, 4.0, and 20.0 µM for (+)-trans-decursidinol; 0, 2.0, 10.0, and 50 µM for Pd-C-I and Pd-C-II; 0, 4.0, 20.0, and 100 µM for Pd-C-III) using Lineweaver-Burk and Dixon plots. By monitoring the effects of different concentrations of the substrates in the Dixon plots (single reciprocal plot), each enzymatic inhibition of test coumarins was assessed. Additionally, in the presence of different concentrations of substrate: 2.5, 1.25, and 0.625 mM pNPG, the Lineweaver-Burk and Dixon plots for α-glucosidase inhibition of coumarins were also performed. The test concentrations of the coumarins in the α-glucosidase kinetic analysis were as follows 0, 7.81, 15.62, 31.25, and 62.5 µM for (+)-trans-decursidinol, Pd-C-I, and Pd-C-II; 0, 15.62, 31.25, 62.5, and 125 µM for Pd-C-III. The PTP1B and α-glucosidase assay methods were the same for both enzymatic procedures. The inhibition constants (Ki) were calculated by interpretation of the Dixon plots, where the value of the x-axis means -Ki.

[3] = Total ROS generation inhibitory activity (rat kidney homogenate, DCFH-DA); assay type: biochemical; settings: mean ± SEM of triplicate
Method: The generation of ROS was calculated using the ROS-sensitive fluorescence indicator (DCFH-DA) of 7-dichlorofluorescein diacetate. In a 50 mM potassium phosphate buffer, rat kidney homogenates (Tissue bank from Pusan National University, Busan, S. Korea) were prepared from the kidneys of newly killed male Wistar rats weighing between 150–200 g and 10 μg of each test sample was applied to 190 μL of kidney post mitochondrial fraction. The mixture was loaded in a potassium phosphate buffer with 50 μL of DCFH-DA (12.5 mM) and shaken for 5 min. On a microplate fluorescence spectrophotometer FLX 800 (Bio-Tek Instruments Inc., Winooski, UT, USA), the fluorescence of 2′,7′-dichlorofluorescein (DCF), the oxidation product from DCFH-DA, was measured at an excitation wavelength of 485 nm and an emission wavelength of 530 nm for 30 min. As a positive control, Trolox, was used.

[4] = test system: t-BHP-treated HepG2 cells; test: Intracellular ROS level in t-BHP-treated HepG2 cells (DCFH-DA); assay type: cell-based, human; settings: 200 μM t-BHP; for ROS generation: 10–40 μM
Method: A fluorometric assay was used to measure the intracellular ROS level in HepG2 cells applying the oxidant-sensitive fluorescence probe 2, DCFH-DA [47]. In order to determine the extent of intracellular ROS scavenging activity, HepG2 cells were seeded into black 96-well plates at a density of 2.0 × 10^5 cells/well and incubated with coumarins at a concentrations range of 2.5–40 µM for 1 h. To induce ROS production, cells were subsequently exposed to 200 µM tert-butyl hydroperoxide (t-BHP) for 30 min and were then incubated for 30 min with DCFH-DA (20 μM). At an excitation wavelength of 485 nm and an emission wavelength of 530 nm, the resulting fluorescence intensities were measured using a fluorescence microplate reader (FL × 800; Bio-Tek Instruments Inc., Winooski, UT, USA).

[5] = ONOO− scavenging activity (DHR 123); assay type: biochemical; settings: mean ± SEM of triplicate
Method: ONOO^− scavenging activity was measured using a slight modification of the method reported by Kooy’s that monitors output of fluorescent rhodamine 123 from non-fluorescent DHR 123 in the presence of ONOO^−. The rhodamine buffer (pH 7.4) consisted of 90 mM sodium chloride, 50 mM sodium phosphate dibasic, 5 mM potassium chloride, 100 µM diethylenetriaminepentaacetic acid and 50 mM sodium phosphate monobasic. DHR 123 final concentration was 5 µM. The buffer used in this assay was prepared and put on ice before use. In 10% DMSO, the samples were dissolved and authentic ONOO^− (10 µM) dissolved in 0.3 N sodium hydroxide was added. Background and final fluorescent intensities were measured after 5 min. The fluorescence intensity of the oxidized DHR 123 was measured with a microplate fluorescence reader (Bio-Tek Instruments, Inc., FLx 800, Winooski, UT, USA) on the excitation and emission wavelengths of 480 and 530 nm, respectively. As a standard control, L-penicillamine was used.

[6] = test system: insulin-resistant HepG2 cells; test: 2-NBDG glucose uptake assay; assay type: cell-based, human; settings: 24 h, insulin-stimulated 2-NBDG uptake
Method: (§2) With minor modifications, the insulin resistant HepG2 cell model was developed according to the previous method. In short, in 96-well plats (2 × 10^5 cells/well), HepG2 cells were cultured. When they reached a confluence, 10^−6 M insulin was treated for 24 h on serum-free MEM to induce insulin resistance, then the cells were incubated for 30 min with 100 nM insulin and harvested for assays as described below.
In accordance with a previous method the glucose uptake assay was established with some modifications. Briefly, HepG2 cells were cultured in 96-well plate to confluence and then treated with 10^−6 M insulin for 24 h to induce insulin resistance (based on a 49% decrease in glucose uptake) (data not shown). Different coumarins (5–40 µM) or 10 µM metformin (non-cytotoxic concentration) concentrations were added and incubated for 24 h, followed by 100 nM insulin and cells incubation for 30 min, respectively. 2-NBDG uptake was measured following this incubation. The cells were incubated with 40 μM of 2-NBDG (dissolved in PBS with 1% BSA) for 20 min. The cells were washed thrice with ice-cold PBS to avoid the reaction, and the fluorescence intensity of 2-NBDG was calculated at 485 nm of excitation and 528 nm of emission on a microplate reader (Bio-Tek Instruments Inc., Winooski, VT, USA). Five replication wells have been set up, and three times each experiment has been replicated.

[7] = test system: PTP1B expression in insulin-resistant HepG2 cells; test: PTP1B expression level by Western blot; assay type: cell-based, human
Method: as §2
Insulin-resistant HepG2 cells (5 × 10^5 cells/well) were treated for 24 h in 6-well plates with different concentrations of coumarins. The cells were washed with ice-cold PBS three times, collected, then lysed with a sample buffer [50 mM (4-(2-hydroxyethyl)-1-piperazineethanessulfonic acid) pH 7.5, 150 mM NaCl, 2.5 mM EDTA, 0.5% NP-40, 1 mM PMSF, 1 mM DTT, 0.2% aprotinin, 0.5% leupeptin, 20 mM NaF, and 1 mM Na3VO4] on ice after stimulation with 100 nM insulin at 37 °C for 30 min. Insoluble materials were extracted by centrifugation for 20 min at 25,000 × g after incubation for 30 min. An updated Bradford protein assay kit calculated the protein concentrations. Total protein (40 μg) was electrophoresed into a polyvinylidene difluoride (PVDF) membrane by use of a dodecyl sulfate-polyacrylamide gel electrophoresis (SDS-PAGE). In a blocking buffer, membranes were blocked (5% skim milk in Tris-buffered saline containing 0.1% Tween 20 (TBST) and incubated overnight at 4 °C with primary antibodies, followed by incubation at room temperature for 4 h with suitable secondary antibodies. Three times for 30 min with TBST, the membranes were washed. The Supersignal West Pico chemiluminescence substrate (Pierce, Rockford, IL, USA) has been used to visualize the protein bands and pictured on X-ray film (Kodak, Rochester, NY, USA) according to the manufacturer’s instructions. Using CS analyzer software (Atto Corp., Tokyo, Japan), bands were scanned and quantitated and the control was set to 1. As the internal control, β-actin was used. For determining the molecular weights of protein bands, prestained blue protein markers were used. Comparisons were made between mean band densities in same gels. Autoradiography visualized protein bands and measured the intensities using Quantity One software (Bio-Rad Laboratories, Hercules, CA, USA).

[8] = molecular target: T1, PTP1B (human recombinant) (Homo sapiens, UniProt P18031); test: PTP1B inhibitory assay with pNPP substrate, with Dixon and Lineweaver-Burk kinetics; assay type: biochemical; settings: for Protein Tyrosine Phosphatase 1B Inhibition Type: determined by Dixon and Lineweaver-Burk plots; for Ki: determined by the Dixon plot, read-out: Protein Tyrosine Phosphatase 1B Ki Value; for IC50: pNPP substrate, mean ± SEM of triplicate, read-out: Protein Tyrosine Phosphatase 1B IC50
T1 construct: purchased Biomol International LP (Plymouth Meeting, Pennsylvania, USA)
T1 sequence (P18031 1-435): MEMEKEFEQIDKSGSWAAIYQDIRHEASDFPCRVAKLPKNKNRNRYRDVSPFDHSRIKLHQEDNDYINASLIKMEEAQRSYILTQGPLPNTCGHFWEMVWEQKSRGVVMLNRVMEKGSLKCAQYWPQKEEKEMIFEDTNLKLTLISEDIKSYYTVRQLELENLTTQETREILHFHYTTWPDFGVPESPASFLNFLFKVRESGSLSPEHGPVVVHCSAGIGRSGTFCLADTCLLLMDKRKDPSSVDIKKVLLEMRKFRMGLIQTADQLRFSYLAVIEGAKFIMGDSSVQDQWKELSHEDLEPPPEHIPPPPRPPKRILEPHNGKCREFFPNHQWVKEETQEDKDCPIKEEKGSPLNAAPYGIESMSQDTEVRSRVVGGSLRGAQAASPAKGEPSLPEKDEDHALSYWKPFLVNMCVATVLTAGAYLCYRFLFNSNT
Method: The inhibitory activity of PTP1B has been tested using pNPP previously reported in our paper. The amount of p-nitrophenyl produced after enzymatic dephosphorylation of pNPP was calculated using a microplate spectrophotometer (Molecular Devices) to calculate absorbance at 405 nm.
as §1

[9] = Homo sapiens, HepG2, pretreated 1 h, read-out: ROS production, inhibition

yeast α-glucosidase, sequence (P53341 whole entry): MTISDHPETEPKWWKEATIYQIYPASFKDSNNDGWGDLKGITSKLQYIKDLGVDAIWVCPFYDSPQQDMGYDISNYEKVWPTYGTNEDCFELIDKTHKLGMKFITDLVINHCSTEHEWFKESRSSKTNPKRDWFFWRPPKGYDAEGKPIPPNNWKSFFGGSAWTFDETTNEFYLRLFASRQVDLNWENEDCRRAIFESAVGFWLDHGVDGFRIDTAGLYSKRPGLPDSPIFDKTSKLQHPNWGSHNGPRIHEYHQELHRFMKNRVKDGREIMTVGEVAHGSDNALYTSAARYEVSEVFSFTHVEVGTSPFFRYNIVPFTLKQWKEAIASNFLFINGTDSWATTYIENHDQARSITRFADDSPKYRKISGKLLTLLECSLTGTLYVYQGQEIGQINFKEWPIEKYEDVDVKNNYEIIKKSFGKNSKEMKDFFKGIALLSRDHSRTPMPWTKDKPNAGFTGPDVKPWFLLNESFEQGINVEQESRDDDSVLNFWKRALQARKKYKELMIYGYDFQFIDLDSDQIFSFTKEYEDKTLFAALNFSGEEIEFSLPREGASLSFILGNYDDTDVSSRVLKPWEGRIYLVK

Compound | ONOO−-mediated albumin nitration ([1]; pretreatment at 5–40 µM) | α-Glucosidase Inhibition Type [2] | IC50 [3] | inhibition at 5 µM ([4]; Homo sapiens, HepG2, 5 μM, pretreated 1 h, read-out: ROS production, inhibition) | inhibition at 10 µM [4, 9] | inhibition at 15 µM ([4]; Homo sapiens, HepG2, 15 μM, pretreated 1 h, read-out: ROS production, inhibition) | IC50 [5] | relative glucose uptake percentage ([6]; 15 µM) | PTP1B expression ([7]; at 10 and 15 µM, 24 h) | Protein Tyrosine Phosphatase 1B Inhibition Type [8] | Ki [8] | IC50 [8] | fold more active than decursinol ([8]; versus decursinol of the earlier work, enzyme not named in the sentence (PTP1B and α-glucosidase discussed)) | ONOO−-mediated albumin nitration ([1]; pretreatment at 12.5–100 µM) | ROS generation [4] | relative glucose uptake percentage ([6]; 40 µM) | PTP1B expression ([7]; concentration not given) | PTP1B expression ([7]; at 20 and 40 µM, 24 h) | relative glucose uptake percentage ([6]; 10 µM)
CC1(C)Oc2cc3oc(=O)ccc3cc2[C@@H](O)[C@@H]1O [(+)-trans-decursidinol] | significantly inhibited in a concentration-dependent manner | Competitive | 9.77 ± 0.32 µM | 75.5% | 57.5% | 43.4% | 4.57 ± 0.21 µM | 125% | diminished PTP1B’s expression | Competitive | 2.84 µM | 2.33 ± 0.07 µM | 25 times | – | – | – | – | – | –
CC(C)(S)[C@H](N)C(=O)O [L-Penicillamine, L-penicillamine, reference compound] | – | – | – | – | – | – | 1.86 ± 0.11 µM | – | – | – | – | – | – | – | – | – | – | – | –
C/C=C\C(=O)O[C@H]1[C@H](OC(C)=O)c2cc3ccc(=O)oc3cc2OC1(C)C [Pd-C-III] | – | Noncompetitive | 9.69 ± 0.21 µM | – | – | – | 1.44 ± 0.22 µM | – | – | Mixed | 16 µM | 12 ± 0.43 µM | – | pronounced dose-dependent inhibition | significantly inhibited ROS generation | 117% | significantly downregulated PTP1B’s expression | – | –
CC(C)=CC(=O)O[C@@H]1c2cc3ccc(=O)oc3cc2OC(C)(C)[C@H]1O [Pd-C-II] | – | Mixed | 10.8 ± 0.73 µM | – | – | – | 3.77 ± 0.15 µM | – | – | Competitive | 9.72 µM | 6.17 ± 0.31 µM | – | pronounced dose-dependent inhibition | significantly inhibited ROS generation | 120% | – | downregulated PTP1B’s expression | –
CC(C)=CC(=O)O[C@H]1[C@H](O)c2cc3ccc(=O)oc3cc2OC1(C)C [Pd-C-I] | – | Mixed | 6.32 ± 0.41 µM | – | – | – | 1.82 ± 0.44 µM | – | – | Competitive | 6.21 µM | 4.32 ± 0.12 µM | – | pronounced dose-dependent inhibition | significantly inhibited ROS generation | 128% | – | downregulated PTP1B’s expression | –
Cc1c(C)c2c(c(C)c1O)CCC(C)(C(=O)O)O2 (centres unmarked) [Trolox, trolox, reference compound] | – | – | 3.29 ± 0.26 µM | – | ~49% | – | – | – | – | – | – | – | – | – | – | – | – | – | –
CN(C)C(=N)N=C(N)N [metformin, reference compound] | – | – | – | – | – | – | – | – | – | – | – | – | – | – | – | – | – | – | 129%
